This passage reports IC50 and GI50 results from patent publication US20240262807A1, “COMPOUND USED AS BCR-ABL INHIBITOR” (CHIA TAI TIANQING PHARMACEUTICAL GROUP CO., LTD., priority 2021, published 2024).

Molecules are shown by their SMILES.

The test system of one assay is K562 cells. In words: Inhibitory effect of compounds on proliferation of K562 cells (CCK-8). Type of assay: cell-based. Conditions: Homo sapiens, 72 h with compound, CCK-8, 5% serum. Here is the method:
K562 cells in logarithmic growth phase and good cell condition were added to a centrifuge tube and centrifuged at 1000 rpm for 5 min in a low speed centrifuge. […] The cells were seeded on a 96-well plate at 100 µL/well using a multi-channel pipette and cultured in a cell incubator at 37° ° C. 5% CO2 and saturated humidity. […] Inhibition rate (%)=(mean value of negative control group−mean value of experimental group)/(mean value of negative control group−mean value of blank group)×100%. A dose-response curve was fitted by four-parameter analysis, with the logarithm of compound concentration serving as abscissa and inhibition rate serving as ordinate, such that IC50 was calculated.

Assay [1] has as its target T1, Ba/F3-BCR-ABL1-T315I-C3 cells (Homo sapiens, UniProt P00519, T315I, cells depend on it).
T1 construct: fused on or other part: P11274 (Breakpoint cluster region protein)
In words: Inhibitory effect of compounds on proliferation of BCR-ABL T315I-transfected Ba/F3 cells (CCK-8). Type of assay: cell-based. The settings on record: 72 h with compound, CCK-8, 5% serum, read-out: IC50 (nM) Ba/F3-BCR-ABL1 T315I. Here is the method: Ba/F3-BCR-ABL1-T315I-C3 cells in logarithmic growth phase and good cell condition were added to a centrifuge tube and centrifuged at 1000 rpm for 5 min in a low speed centrifuge. The supernatant was discarded, and 5 mL of complete medium (RPMI 1640 basic medium+10% FBS) was added using a pipette for cell resuspension. The cells were counted using a cell counter, diluted with complete medium to a cell density of 6×10^4 cells/mL, and an equivalent amount of RPMI 1640 basic medium was added to adjust the serum concentration to 5% and the cell density to 3×10^4 cells/mL for plate seeding. The cells were seeded on a 96-well plate at 100 μL/well using a multi-channel pipette and cultured in a cell incubator at 37° C. 5% CO2 and saturated humidity. After 24 h incubation, compounds were loaded using a nanoliter pipettor, 8 concentrations (1000 nM, 250 nM, 63 nM, 16 nM, 3.9 nM, 0.98 nM, 0.24 nM, 0.061 nM) were set for each compound, and 2 replicate wells were set for each concentration; cells with no compounds added were taken as a negative control, and a plating medium with no cells added was taken as a blank control. After 72 h. […] Inhibition rate (%)=(mean value of negative control group−mean value of experimental group)/(mean value of negative control group−mean value of blank group)×100%. A dose-response curve was fitted by four-parameter analysis, with the logarithm of compound concentration serving as abscissa and inhibition rate serving as ordinate, such that ICso was calculated.

A word on the IC50: it is the point on the concentration scale where inhibition reaches its midpoint.

Take `O=C(Nc1ccc(OC(F)(F)Cl)cc1)c1cnc(N2CC3CC(C2)O3)c(-c2cnn3c2COCC3)c1` [Compound 39]: the IC50 with K562 cells stood at 5.9 nM. For the same compound, in assay [1], the GI50 was 2.4 nM.
The matching figures for `CO[C@@H]1CCN(c2ncc(C(=O)Nc3ccc(OC(F)(F)Cl)cc3)cc2-c2cnn3c2COCC3)C1` [Compound 41]: 2.1 nM and 3.4 nM.
Turning to `O=C(Nc1ccc(OC(F)(F)Cl)cc1)c1cnc(N2CCCC2)c(-c2cnn3c2COCC3)c1` [Compound 42], the IC50 in the assay on K562 cells was found to be 2.3 nM. The GI50 in assay [1] was 3.5 nM.
The like results for `O=C(Nc1ccc(OC(F)(F)Cl)cc1)c1cnc(N2CCOCC2)c(-c2cnn3c2COCC3)c1` [Compound 43] were, in that order, 2.2 nM and 4 nM.
The like results for `O=C(Nc1ccc(OC(F)(F)Cl)cc1)c1cnc(N2CC3CCC(C2)O3)c(-c2cnn3c2COCC3)c1` [Compound 44] were, in that order, 4.5 nM and 2.4 nM.
`Cn1cnc(-c2cc(C(=O)Nc3ccc(OC(F)(F)Cl)cc3)cnc2N2CCCC2)cc1=O` [Compound 45]: in the assay on K562 cells, the IC50 worked out at 4.2 nM. Also, in assay [1], the GI50 was found to be 8.1 nM.
The matching figures for `Cn1cnc(-c2cc(C(=O)Nc3ccc(OC(F)(F)Cl)cc3)cnc2N2CC[C@@H](O)C2)cc1=O` [Compound 46]: 26 nM and 26 nM.
The like results for `Cn1ncc(-c2cc(C(=O)Nc3ccc(OC(F)(F)Cl)cc3)cnc2N2CCCC2)cc1=O` [Compound 47] were, in that order, 2.6 nM and 1.8 nM.
The matching figures for `Cn1cnc(-c2cc(C(=O)Nc3ccc(OC(F)(F)Cl)cc3)cnc2N2CC[C@@H](F)C2)cc1=O` [Compound 53]: 3 nM and 2.7 nM.
As for `Cn1cnc(-c2cc(C(=O)Nc3ccc(OC(F)(F)Cl)cc3)cnc2N2CCOCC2)cc1=O` [Compound 54], the IC50 with K562 cells came out at 8.5 nM. The GI50 in assay [1] came out at 6.4 nM.
For the compound `C[C@@H]1COCCN1c1ncc(C(=O)Nc2ccc(OC(F)(F)Cl)cc2)cc1-c1cc(=O)n(C)cn1` [Compound 56], the half-inhibitory concentration (IC50) with K562 cells was 18 nM. Moreover, the GI50 in assay [1] was found to be 12 nM.
In the case of `Cn1cncc(-c2cc(C(=O)Nc3ccc(OC(F)(F)Cl)cc3)cnc2N2CCOCC2)c1=O` [Compound 60], the IC50 in the assay with K562 cells was found to be 6.3 nM. Further, the GI50 in assay [1] is 4 nM.
The like results for `CO[C@@H]1CCN(c2ncc(C(=O)Nc3ccc(OC(F)(F)Cl)cc3)cc2-c2cc(=O)n(C)cn2)C1` [Compound 63] were, in that order, 5.2 nM and 6 nM.
For the compound `Cn1cnc(-c2cc(C(=O)Nc3ccc(OC(F)(F)Cl)cc3)cnc2N2CCC(F)(F)CC2)cc1=O` [Compound 64], the IC50 in the assay on K562 cells came to 9.1 nM. For the same compound, the GI50 in assay [1] worked out at 8.1 nM.
The matching figures for `Cn1cnc(-c2cc(C(=O)Nc3ccc(OC(F)(F)Cl)cc3)cnc2N2CCSCC2)cc1=O` [Compound 67]: 12 nM and 6.1 nM.
On to `Cn1cnc(-c2cc(C(=O)Nc3ccc(OC(F)(F)Cl)cc3)cnc2N2CC(F)(F)C2)cc1=O` [Compound 72], for which the IC50 in the assay on K562 cells was 9.2 nM. Besides, in assay [1], the GI50 was found to be 6.3 nM.
The matching figures for `C[C@@H]1CCN1c1ncc(C(=O)Nc2ccc(OC(F)(F)Cl)cc2)cc1-c1cc(=O)n(C)cn1` [Compound 76]: 2.2 nM and 2.2 nM.
Consider `Cn1ncc(-c2cc(C(=O)Nc3ccc(OC(F)(F)Cl)cc3)cnc2N2CC3CC(C2)O3)cc1=O` [Compound 83], for which the IC50 in the assay with K562 cells worked out at 3.2 nM. The GI50 in assay [1] came out at 4.1 nM.
The matching figures for `Cn1cccc(-c2cc(C(=O)Nc3ccc(OC(F)(F)Cl)cc3)cnc2N2CCOCC2)c1=O` [Compound 86]: 24 nM and 14 nM.
With `Cn1ncc(-c2cc(C(=O)Nc3ccc(OC(F)(F)Cl)cc3)cnc2N2CC3CCC(C2)O3)cc1=O` [Compound 91], the IC50 with K562 cells amounted to 6.6 nM. Besides, the GI50 in assay [1] was determined as 4.1 nM.
Consider `CN1CCc2cc(-c3cc(C(=O)Nc4ccc(OC(F)(F)Cl)cc4)cnc3N3CC[C@@H](O)C3)[nH]c2C1=O` [Compound 94], for which, in the assay with K562 cells, the IC50 is 0.71 nM. Further, the GI50 in assay [1] amounted to 0.88 nM.
The like results for `O=C(Nc1ccc(OC(F)(F)Cl)cc1)c1cnc(N2CCOCC2)c(-c2cc3c([nH]2)C(=O)NC3)c1` [Compound 96] were, in that order, 4.7 nM and 0.59 nM.
The like results for `O=C(Nc1ccc(OC(F)(F)Cl)cc1)c1cnc(N2CCOCC2)c(-c2cc3c([nH]2)C(=O)NCC3)c1` [Compound 97] were, in that order, 5.7 nM and 2.3 nM.
The matching figures for `O=C(Nc1ccc(OC(F)(F)Cl)cc1)c1cnc(N2CC(O)C2)c(-c2cc3c([nH]2)C(=O)NCC3)c1` [Compound 98]: 4.7 nM and 3.8 nM.
In the case of `O=C(Nc1ccc(OC(F)(F)Cl)cc1)c1cnc(N2CC[C@@H](O)C2)c(-c2cc3c([nH]2)C(=O)NCC3)c1` [Compound 99], in the assay with K562 cells, the IC50 was found to be 3.2 nM. The GI50 in assay [1] is 1.4 nM.
The matching figures for `CN(C)c1ncc(C(=O)Nc2ccc(OC(F)(F)Cl)cc2)cc1-c1cc2c([nH]1)C(=O)NC2` [Compound 109]: 0.95 nM and 0.27 nM.
The matching figures for `CNc1ncc(C(=O)Nc2ccc(OC(F)(F)Cl)cc2)cc1-c1cc2c([nH]1)C(=O)NC2` [Compound 110]: 3.1 nM and 0.44 nM.
The matching figures for `CN1Cc2cc(-c3cc(C(=O)Nc4ccc(OC(F)(F)Cl)cc4)cnc3N3CC[C@@H](O)C3)[nH]c2C1=O` [Compound 111]: 0.5 nM and 0.16 nM.
Regarding `CN1Cc2cc(-c3cc(C(=O)Nc4ccc(OC(F)(F)Cl)cc4)cnc3N3CC(O)C3)[nH]c2C1=O` [Compound 112], the IC50 in the assay on K562 cells was 0.54 nM. Besides, in assay [1], the GI50 was determined as 0.29 nM.
The like results for `O=C(Nc1ccc(OC(F)(F)Cl)cc1)c1cnc(N2CC[C@@H](O)C2)c(-c2cc3c([nH]2)C(=O)N(C2CC2)C3)c1` [Compound 113] were, in that order, 0.62 nM and 0.18 nM.
The matching figures for `O=C(Nc1ccc(OC(F)(F)Cl)cc1)c1cnc(N2CC(O)C2)c(-c2cc3c([nH]2)C(=O)N(C2CC2)C3)c1` [Compound 114]: 0.56 nM and 0.21 nM.
The like results for `CN1CCc2cc(-c3cc(C(=O)Nc4ccc(OC(F)(F)Cl)cc4)cnc3N3CCOCC3)[nH]c2C1=O` [Compound 115] were, in that order, 5.5 nM and 3 nM.
For the compound `O=C(Nc1ccc(OC(F)(F)Cl)cc1)c1ccc(N2CC[C@@H](O)C2)c(-c2cc3c([nH]2)C(=O)NC3)c1` [Compound 116], in the assay on K562 cells, the IC50 was found to be 0.82 nM. Besides, the GI50 in assay [1] came out at 0.12 nM.
The matching figures for `O=C(Nc1ccc(OC(F)(F)Cl)cc1)c1ccc(N2CC(O)C2)c(-c2cc3c([nH]2)C(=O)NC3)c1` [Compound 117]: 1 nM and 0.15 nM.
The like results for `O=C(Nc1ccc(OC(F)(F)Cl)cc1)c1ccc(N2CC(O)C2)c(-c2cc3c([nH]2)C(=O)N(C2CC2)C3)c1` [Compound 120] were, in that order, 0.21 nM and 0.084 nM.
